We go through three compounds from PMC8062632, “Structural studies of phosphorylation-dependent interactions between the V2R receptor and arrestin-2” (Nature Communications, 2021).

The target of this test is arrestin2. Description: Cou-facilitated FRET assay for dissociation constant determination. The class given is binding, bovine. The settings on record: for Kd: 1 μM arrestin2 L293Cou with 1 μM Fab30, rising phosphopeptide concentrations, 25 °C, excitation 280 nm, ratio F450/F330; for reduction of affinity for arrestin2 compared with V2Rpp-FP: from FRET Kd values. As to the method:
Steady state fluorescence was measured by a Varioskan flash (Thermo Scientific) instrument at 25 °C. […] Fluorescence intensity analysis of normalized ratio F450/F330 was calculated from relative fluorescence intensity at 450 and 330 nm. The dissociation constant was determined by fitting to the nonlinear regression equation y = Bmax [X] / (Kd + [X]) + NS[X] + Background as ours previously reported. […]
different phospho-peptide binding. a). Schematic flowchart of FRET assay for dissociation constant determination of arrestin-phospho-peptide interaction.
The synthetic fluorescent amino acid L-(7-hydroxycoumarin-4-yl) ethylglycine (Cou) was genetically incorporated into arrestin2 and served as a fluorescent acceptor for the emission light at 330 nm, and tryptophan served as the donor, which was excited at 280 nm. Cou produced its characteristic emission light at 450 nm. b). Analysis of the titration experiments monitored by FRET assay. The dissociation constant was determined by fitting to the nonlinear regression equation y = Bmax[X]/(Kd + [X]) + NS[X]+Background as previously described4. […]

One may read the Kd as the free concentration of one partner at which half of the binding sites on the other are occupied at equilibrium, for simple one-to-one binding. For the compound `CC(C)C[C@H](NC(=O)[C@H](COP(=O)(O)O)NC(=O)[C@@H]1CCCN1C(=O)[C@@H]1CCCN1C(=O)[C@@H](NC(=O)[C@H](CCCNC(=N)N)NC(=O)CNC(=O)[C@H](CCCNC(=N)N)NC(=O)[C@H](C)N)[C@@H](C)O)C(=O)NCC(=O)N1CCC[C@H]1C(=O)N[C@@H](CCC(N)=O)C(=O)N[C@@H](CC(=O)O)C(=O)N[C@@H](CCC(=O)O)C(=O)N[C@@H](COP(=O)(O)O)C(=O)N[C@@H](CS)C(=O)N[C@H](C(=O)N[C@H](C(=O)N[C@@H](C)C(=O)N[C@@H](COP(=O)(O)O)C(=O)N[C@@H](COP(=O)(O)O)C(=O)N[C@@H](COP(=O)(O)O)C(=O)N[C@@H](CC(C)C)C(=O)N[C@@H](C)C(=O)N[C@@H](CCCCN)C(=O)N[C@@H](CC(=O)O)C(=O)N[C@H](C(=O)N[C@@H](CO)C(=O)N[C@@H](CO)C(=O)O)[C@@H](C)O)[C@@H](C)OP(=O)(O)O)[C@@H](C)OP(=O)(O)O` [V2Rpp-1], the Kd turned out to be 3.3 ± 0.6 µM and the “reduction of affinity for arrestin2 compared with V2Rpp-FP” value (from here on “reduction of affinity for arrestin2”) is “approximately 3 fold”.

`CC(C)C[C@H](NC(=O)[C@H](COP(=O)(O)O)NC(=O)[C@@H]1CCCN1C(=O)[C@@H]1CCCN1C(=O)[C@@H](NC(=O)[C@H](CCCNC(=N)N)NC(=O)CNC(=O)[C@H](CCCNC(=N)N)NC(=O)[C@H](C)N)[C@@H](C)OP(=O)(O)O)C(=O)NCC(=O)N1CCC[C@H]1C(=O)N[C@@H](CCC(N)=O)C(=O)N[C@@H](CC(=O)O)C(=O)N[C@@H](CCC(=O)O)C(=O)N[C@@H](CO)C(=O)N[C@@H](CS)C(=O)N[C@H](C(=O)N[C@H](C(=O)N[C@@H](C)C(=O)N[C@@H](COP(=O)(O)O)C(=O)N[C@@H](COP(=O)(O)O)C(=O)N[C@@H](COP(=O)(O)O)C(=O)N[C@@H](CC(C)C)C(=O)N[C@@H](C)C(=O)N[C@@H](CCCCN)C(=O)N[C@@H](CC(=O)O)C(=O)N[C@H](C(=O)N[C@@H](CO)C(=O)N[C@@H](CO)C(=O)O)[C@@H](C)O)[C@@H](C)OP(=O)(O)O)[C@@H](C)OP(=O)(O)O` [V2Rpp-3]: the dissociation constant Kd was 3 ± 0.4 µM and the “reduction of affinity for arrestin2” value is reported as “approximately 3 fold”.

For the compound `CC(C)C[C@H](NC(=O)[C@H](COP(=O)(O)O)NC(=O)[C@@H]1CCCN1C(=O)[C@@H]1CCCN1C(=O)[C@@H](NC(=O)[C@H](CCCNC(=N)N)NC(=O)CNC(=O)[C@H](CCCNC(=N)N)NC(=O)[C@H](C)N)[C@@H](C)OP(=O)(O)O)C(=O)NCC(=O)N1CCC[C@H]1C(=O)N[C@@H](CCC(N)=O)C(=O)N[C@@H](CC(=O)O)C(=O)N[C@@H](CCC(=O)O)C(=O)N[C@@H](COP(=O)(O)O)C(=O)N[C@@H](CS)C(=O)N[C@H](C(=O)N[C@H](C(=O)N[C@@H](C)C(=O)N[C@@H](COP(=O)(O)O)C(=O)N[C@@H](COP(=O)(O)O)C(=O)N[C@@H](COP(=O)(O)O)C(=O)N[C@@H](CC(C)C)C(=O)N[C@@H](C)C(=O)N[C@@H](CCCCN)C(=O)N[C@@H](CC(=O)O)C(=O)N[C@H](C(=O)N[C@@H](CO)C(=O)N[C@@H](CO)C(=O)O)[C@@H](C)O)[C@@H](C)O)[C@@H](C)OP(=O)(O)O` [V2Rpp-4], the Kd turned out to be 5.1 ± 0.7 µM and the “reduction of affinity for arrestin2” value is around 5 fold.
